Results taken from patent publication US20020173538A1, “Method for sensitizing cancer cells to cancer therapies with a mevalonate-reducing compound” (priority 2000, published 2002).
Read-outs that look alike come from different tables or passages of the source. Marks after values point to notes of the source that are not given here.

Columns and labels:
Hep 3B cells [1] = assay: Cell cycle determination by flow cytometry, Hep 3B; assay type: cell-based, human; conditions: cell line not given
Hep 3B cells [2] = conditions: human, 48 h
Source text: (§1) Human hepatoma cell lines Hep G2 and Hep 3 were chosen as the in vitro models of hepatocytes and hepatoma, respectively.

in vitro = conditions: human, Cell viability
Source text: as §1

Hep G2 cells = assay: MTT cell viability assay, Hep G2 cells (serum-free DMEM); conditions: Homo sapiens
Source text: as §1

Hep 3B cells [3] = assay: MTT cell viability assay, Hep 3B cells (serum-free DMEM); conditions: for viability at 5 µM / viability at 10 µM / viability at 25 µM / viability at 50 µM / IC50: Homo sapiens, Hep3B
Source text: as §1

SMILES: O=C(/C=C/c1ccc(O)c(O)c1)OCCc1ccccc1 [CAPE, caffeic acid phenethyl ester]
- cell cycle arrest stage (Hep 3B cells [1]): G1 arrest
- Cell viability (Hep 3B cells [2]; 5 μM): 88.8 ± 1.6^b % of control
- Cell viability (Hep 3B cells [2]; 10 μM): 77.4 ± 1.8^c % of control
- viability at 48 h, 5 μM (in vitro): 70.2 ± 1.7%
- viability at 48 h, 10 μM (in vitro): 47.7 ± 5.6%
- viability at 48 hr, 5 μM (in vitro): 71.1 ± 1.8%
- viability at 48 hr, 10 μM (in vitro): 47.4 ± 3%
- viability at 48 hr, 25 μM (in vitro): 42.6 ± 1.3%
- viability at 48 hr, 50 μM (in vitro): 7.5 ± 0.6%
- viability at 72 h, 5 μM (in vitro): 36.8 ± 6.7%
- viability at 72 h, 10 μM (in vitro): 20 ± 4%
- viability at 72 h, 25 μM (in vitro): 13.2 ± 1.1%
- viability at 72 hr, 5 μM (in vitro): 42.3 ± 2.5%
- viability at 72 hr, 10 μM (in vitro): 21.2 ± 5%
- viability at 72 hr, 25 μM (in vitro): 12.5 ± 3%
- viability at 72 hr, 50 μM (in vitro): 1.9 ± 1.8%
- IC50 (Hep G2 cells; HepG2, 48 h, read-out: IC50 (cell viability), 48 hr): 9.5 µM
- IC50 (Hep G2 cells; HepG2, 72 h, read-out: IC50 (cell viability), 72 hr): 4.5 µM
- Ratio, inhibition (%) Hep 3B/inhibition (%) Hep G2 (Hep 3B cells [3]; CAPE 5 μM alone, 72 hr, Table 23): 0.4**
- Ratio, inhibition (%) Hep 3B/inhibition (%) Hep G2 (Hep 3B cells [3]; CAPE 5 μM, 48 hr): 0.4***
- Ratio, inhibition (%) Hep 3B/inhibition (%) Hep G2 (Hep 3B cells [3]; CAPE 5 μM, 72 hr): 0.5***
- Ratio, inhibition (%) Hep 3B/inhibition (%) Hep G2 (Hep 3B cells [3]; CAPE 10 μM alone, 72 hr, Table 23): 0.6***
- Ratio, inhibition (%) Hep 3B/inhibition (%) Hep G2 (Hep 3B cells [3]; CAPE 10 μM, 48 hr): 0.5***
- Ratio, inhibition (%) Hep 3B/inhibition (%) Hep G2 (Hep 3B cells [3]; CAPE 10 μM, 72 hr): 0.7**
- Ratio, inhibition (%) Hep 3B/inhibition (%) Hep G2 (Hep 3B cells [3]; CAPE 25 μM alone, 72 hr, Table 23): 0.9
- Ratio, inhibition (%) Hep 3B/inhibition (%) Hep G2 (Hep 3B cells [3]; CAPE 25 μM, 48 hr): 1.1
- Ratio, inhibition (%) Hep 3B/inhibition (%) Hep G2 (Hep 3B cells [3]; CAPE 25 μM, 72 hr): 1.0
- Ratio, inhibition (%) Hep 3B/inhibition (%) Hep G2 (Hep 3B cells [3]; CAPE 50 μM, 48 hr): 0.9**
- Ratio, inhibition (%) Hep 3B/inhibition (%) Hep G2 (Hep 3B cells [3]; CAPE 50 μM, 72 hr): 1.0
- viability at 5 µM (Hep 3B cells [3]; 48 h, read-out: Cell viability, CAPE 5 μM, 48 hr): 87.1 ± 1.8%
- viability at 10 µM (Hep 3B cells [3]; 48 h, read-out: Cell viability, CAPE 10 μM, 48 hr): 73.2 ± 1.2%
- viability at 25 µM (Hep 3B cells [3]; 48 h, read-out: Cell viability, CAPE 25 μM, 48 hr): 38.2 ± 4.7%
- viability at 50 µM (Hep 3B cells [3]; 48 h, read-out: Cell viability, CAPE 50 μM, 48 hr): 20.5 ± 4.6%
- IC50 (Hep 3B cells [3]; 48 h, read-out: IC50 (cell viability), 48 hr): 19.9 µM
- viability at 5 µM (Hep 3B cells [3]; 72 h, read-out: Cell viability, CAPE 5 μM alone, 72 hr, Table 23): 74.2 ± 6.8%
- viability at 5 µM (Hep 3B cells [3]; 72 h, read-out: Cell viability, CAPE 5 μM, 72 hr): 70.8 ± 2.6%
- viability at 10 µM (Hep 3B cells [3]; 72 h, read-out: Cell viability, CAPE 10 μM alone, 72 hr, Table 23): 53.5 ± 5%
- viability at 10 µM (Hep 3B cells [3]; 72 h, read-out: Cell viability, CAPE 10 μM, 72 hr): 47.6 ± 1.9%
- viability at 25 µM (Hep 3B cells [3]; 72 h, read-out: Cell viability, CAPE 25 μM alone, 72 hr, Table 23): 22.3 ± 5.7%
- viability at 25 µM (Hep 3B cells [3]; 72 h, read-out: Cell viability, CAPE 25 μM, 72 hr): 12.5 ± 4.8%
- viability at 50 µM (Hep 3B cells [3]; 72 h, read-out: Cell viability, CAPE 50 μM, 72 hr): 0%
- IC50 (Hep 3B cells [3]; 72 h, read-out: IC50 (cell viability), 72 hr): 9.5 µM
- Ratio, inhibition (%) Hep 3B/inhibition (%) Hep G2 (Hep 3B cells [3]; no lovastatin 48 hr, then CAPE 5 μM 48 hr): 0.4***
- Ratio, inhibition (%) Hep 3B/inhibition (%) Hep G2 (Hep 3B cells [3]; no lovastatin 48 hr, then CAPE 10 μM 48 hr): 0.4***
